Test results: the supplement of paper PMC10307832

Tests used:
Assay in all cases: relative viability (nuclei count vs DMSO), 5 days (fraction); higher = more cells survive
201T = system: 201T
Outline: (§1)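 One day after seeding in 1536-well plates, lung cancer cell lines were dosed by pin tool. Dosing was either single-drug or a fixed anchor-drug dose plus five library-drug doses (not always all listed) in √10 steps. After 5 days, nuclei were stained in one fix-and-stain step and counted on 4× images, and relative viability is the nuclei count of treated wells over that of vehicle wells, given as the median of duplicate plates.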

ABC-1 = system: ABC-1
Outline: as §1

BEN = system: BEN
Outline: as §1

HCC-366 = system: HCC-366
Outline: as §1

HCC-44 = system: HCC-44
Outline: as §1

HCC-78 = system: HCC-78
Outline: as §1

LK-2 = system: LK-2
Outline: as §1

LOU-NH91 = system: LOU-NH91
Outline: as §1

NCI-H1355 = system: NCI-H1355
Outline: as §1

NCI-H1650 = system: NCI-H1650
Outline: as §1

NCI-H1666 = system: NCI-H1666
Outline: as §1

NCI-H1734 = system: NCI-H1734
Outline: as §1

NCI-H1755 = system: NCI-H1755
Outline: as §1

NCI-H2009 = system: NCI-H2009
Outline: as §1

NCI-H2228 = system: NCI-H2228
Outline: as §1

NCI-H2347 = system: NCI-H2347
Outline: as §1

NCI-H2405 = system: NCI-H2405
Outline: as §1

NCI-H358 = system: NCI-H358
Outline: as §1

NCI-H520 = system: NCI-H520
Outline: as §1

NCI-H727 = system: NCI-H727
Outline: as §1

NCI-H838 = system: NCI-H838
Outline: as §1

SW 1573 = system: SW 1573
Outline: as §1

UMC-11 = system: UMC-11
Outline: as §1

## O=C(O)CCCCC(CCSCc1ccccc1)SCc1ccccc1 (centres undefined) [CPI-613] + CS(=O)(=O)CCNCc1ccc(-c2ccc3ncnc(Nc4ccc(OCc5cccc(F)c5)c(Cl)c4)c3c2)o1 [Lapatinib] (partner 2 µM)
201T; first compound 5 µM
  relative viability: 1.09
201T; first compound 15.81 µM
  relative viability: 0.958
201T; first compound 50 µM
  relative viability: 0.953
201T; first compound 158.11 µM
  relative viability: 0.978
201T; first compound 500 µM
  relative viability: 0.972
ABC-1; first compound 5 µM
  relative viability: 1
ABC-1; first compound 15.81 µM
  relative viability: 0.948
ABC-1; first compound 50 µM
  relative viability: 1.33
ABC-1; first compound 158.11 µM
  relative viability: 1.27
ABC-1; first compound 500 µM
  relative viability: 1.57
BEN; first compound 5 µM
  relative viability: 0.673
BEN; first compound 15.81 µM
  relative viability: 0.577
BEN; first compound 50 µM
  relative viability: 0.526
BEN; first compound 158.11 µM
  relative viability: 0.502
BEN; first compound 500 µM
  relative viability: 0.624
HCC-366; first compound 5 µM
  relative viability: 0.959
HCC-366; first compound 15.81 µM
  relative viability: 1.02
HCC-366; first compound 50 µM
  relative viability: 1
HCC-366; first compound 158.11 µM
  relative viability: 0.284
HCC-366; first compound 500 µM
  relative viability: 0.0085
HCC-44; first compound 5 µM
  relative viability: 0.991
HCC-44; first compound 15.81 µM
  relative viability: 0.937
HCC-44; first compound 50 µM
  relative viability: 1.04
HCC-44; first compound 158.11 µM
  relative viability: 0.838
HCC-44; first compound 500 µM
  relative viability: 0.0306
HCC-78; first compound 5 µM
  relative viability: 0.825
HCC-78; first compound 15.81 µM
  relative viability: 0.591
HCC-78; first compound 158.11 µM
  relative viability: 0.816
HCC-78; first compound 500 µM
  relative viability: 1.14
LK-2; first compound 5 µM
  relative viability: 0.967
LK-2; first compound 15.81 µM
  relative viability: 0.864
LK-2; first compound 50 µM
  relative viability: 0.876
LK-2; first compound 158.11 µM
  relative viability: 0.905
LK-2; first compound 500 µM
  relative viability: 0.853
LOU-NH91; first compound 5 µM
  relative viability: 0.79
LOU-NH91; first compound 15.81 µM
  relative viability: 0.722
LOU-NH91; first compound 50 µM
  relative viability: 0.834
LOU-NH91; first compound 158.11 µM
  relative viability: 0.739
LOU-NH91; first compound 500 µM
  relative viability: 0.699
NCI-H1355; first compound 5 µM
  relative viability: 1.02
NCI-H1355; first compound 15.81 µM
  relative viability: 0.872
NCI-H1355; first compound 50 µM
  relative viability: 0.979
NCI-H1355; first compound 158.11 µM
  relative viability: 0.642
NCI-H1355; first compound 500 µM
  relative viability: 0.589
NCI-H1650; first compound 5 µM
  relative viability: 0.584
NCI-H1650; first compound 15.81 µM
  relative viability: 0.662
NCI-H1650; first compound 50 µM
  relative viability: 0.719
NCI-H1650; first compound 158.11 µM
  relative viability: 0.082
NCI-H1650; first compound 500 µM
  relative viability: 0.023
NCI-H1666; first compound 5 µM
  relative viability: 0.629
NCI-H1666; first compound 15.81 µM
  relative viability: 0.555
NCI-H1666; first compound 50 µM
  relative viability: 0.656
NCI-H1666; first compound 158.11 µM
  relative viability: 0.162
NCI-H1666; first compound 500 µM
  relative viability: 0.109
NCI-H1734; first compound 5 µM
  relative viability: 0.939
NCI-H1734; first compound 15.81 µM
  relative viability: 0.686
NCI-H1734; first compound 50 µM
  relative viability: 1
NCI-H1734; first compound 158.11 µM
  relative viability: 0.349
NCI-H1734; first compound 500 µM
  relative viability: 0.116
NCI-H1755; first compound 5 µM
  relative viability: 0.997
NCI-H1755; first compound 15.81 µM
  relative viability: 0.996
NCI-H1755; first compound 50 µM
  relative viability: 1
NCI-H1755; first compound 158.11 µM
  relative viability: 0.969
NCI-H1755; first compound 500 µM
  relative viability: 0.232
NCI-H2009; first compound 5 µM
  relative viability: 0.996
NCI-H2009; first compound 15.81 µM
  relative viability: 0.897
NCI-H2009; first compound 50 µM
  relative viability: 0.771
NCI-H2009; first compound 158.11 µM
  relative viability: 0.18
NCI-H2009; first compound 500 µM
  relative viability: 0.0119
NCI-H2228; first compound 5 µM
  relative viability: 0.817
NCI-H2228; first compound 15.81 µM
  relative viability: 0.979
NCI-H2228; first compound 50 µM
  relative viability: 0.832
NCI-H2228; first compound 158.11 µM
  relative viability: 0.406
NCI-H2228; first compound 500 µM
  relative viability: 0.0151
NCI-H2347; first compound 5 µM
  relative viability: 0.986
NCI-H2347; first compound 15.81 µM
  relative viability: 0.846
NCI-H2347; first compound 50 µM
  relative viability: 0.762
NCI-H2347; first compound 158.11 µM
  relative viability: 0.563
NCI-H2347; first compound 500 µM
  relative viability: 0.766
NCI-H2405; first compound 5 µM
  relative viability: 1.09
NCI-H2405; first compound 15.81 µM
  relative viability: 1.12
NCI-H2405; first compound 50 µM
  relative viability: 1.09
NCI-H2405; first compound 158.11 µM
  relative viability: 0.979
NCI-H2405; first compound 500 µM
  relative viability: 0.902
NCI-H358; first compound 5 µM
  relative viability: 0.416
NCI-H358; first compound 15.81 µM
  relative viability: 0.436
NCI-H358; first compound 50 µM
  relative viability: 0.409
NCI-H358; first compound 158.11 µM
  relative viability: 0.296
NCI-H358; first compound 500 µM
  relative viability: 0.0347
NCI-H520; first compound 5 µM
  relative viability: 0.887
NCI-H520; first compound 15.81 µM
  relative viability: 0.634
NCI-H520; first compound 50 µM
  relative viability: 0.912
NCI-H520; first compound 158.11 µM
  relative viability: 0.264
NCI-H520; first compound 500 µM
  relative viability: 0.103
NCI-H727; first compound 5 µM
  relative viability: 0.739
NCI-H727; first compound 15.81 µM
  relative viability: 0.609
NCI-H727; first compound 50 µM
  relative viability: 0.683
NCI-H727; first compound 158.11 µM
  relative viability: 0.673
NCI-H727; first compound 500 µM
  relative viability: 0.0973
NCI-H838; first compound 5 µM
  relative viability: 0.862
NCI-H838; first compound 15.81 µM
  relative viability: 0.783
NCI-H838; first compound 50 µM
  relative viability: 0.846
NCI-H838; first compound 158.11 µM
  relative viability: 0.601
NCI-H838; first compound 500 µM
  relative viability: 0.0634
SW 1573; first compound 5 µM
  relative viability: 1.24
SW 1573; first compound 15.81 µM
  relative viability: 1.06
SW 1573; first compound 50 µM
  relative viability: 1.13
SW 1573; first compound 158.11 µM
  relative viability: 1.06
SW 1573; first compound 500 µM
  relative viability: 1
UMC-11; first compound 5 µM
  relative viability: 1.08
UMC-11; first compound 15.81 µM
  relative viability: 1.11
UMC-11; first compound 50 µM
  relative viability: 0.789
UMC-11; first compound 158.11 µM
  relative viability: 0.438
UMC-11; first compound 500 µM
  relative viability: 0.119
